Data taken from patent US12433844B2, “Preparation method and application of tumor microparticles encapsulating metabolic inhibitors” (Union Hospital, Tongji Medical College, Huazhong University …, priority 2022, dated 2025).

Tested on: lung metastasis
Assay: Lung metastatic nodules count (H&E staining)
Type: in vivo, mice
Conditions: compared to the PBS intervention group
Experimental: In order to explore the anti-tumor effect of TMP-F combined with chemotherapy, two doses of cisplatin chemotherapy (Cis) are added during the intervention process. […] In addition, the lungs of mice are extracted, hematoxylin-eosin (H&E) staining is performed on the lungs of mice, and the number of lung metastatic nodules under the light microscope are observed and counted.

N.N.[Cl][Pt][Cl] [chemotherapy alone, cisplatin]
lung metastasis (number of lung metastatic nodules): inhibits the lung metastasis
